Marks after values point to notes of the source that are not given here.
What was measured:
estrogen receptors = test: Binding capacity of impurities to estrogen receptors; design: species or system human; settings: impurities in Compound 1 from Process A, Route 1 after recrystallization; directly or from the product after ester hydrolysis
Description: (§1) Estrogen receptor binding assay: A suitable example system is an estrogen receptor-kit manufactured by PanVera for ERIβ, which contains recombinant estrogen receptor β ligand, FLUORMONE™ ES2 (ES2), a fluorescently labeled estrogen ligand, and appropriate buffer. […] When bound to ERβ, ES2 tumbles slowly and has a high fluorescence polarization value.
(§2) The competition assay was conducted according to the manufacturer's protocol (Lit. No. L0712, Rev. 10/03). Assay reagents used were bacculovirus expressed, full length human ERβ […] in 50 mM Bis-Tris Propane (pH=9), 400 mM KCl, 2 mM DTT, 1 mM EDTA, 10% glycerol, ES2 400 nM in methanol and E2 screening buffer consisting of 100 mM potassium phosphate (pH=7.4), 100 μg/mL BGG, 0.02% NaN3. The ES2-ERβ complex was formed with 20 μL 20 nM ERβ (0.020 pmol/μL) and 20 μL 2 nM ES2 (0.002 pmol/μL). Positive control (estrogen) solution was prepared using 20 μL of a 1.0 mM stock solution in DMSO and 80 μL DMSO. In a first dilution, 50 μL of this solution is added to 50 μL of DMSO, which is followed by dilutions in 2-fold increments, to provide for a 14 point dilution curve. In a second dilution, to 4 μL of each DMSO solution from the first dilution is added 400 μL of ES2 screening buffer. […] Fluorescence polarization values are obtained using 485 nm excitation and 530 nm emission interference filters. […]

ERβ = molecular target: T1, ERβ (Homo sapiens, UniProt Q92731); test: Estrogen receptor binding assay (fluorescence polarization competition), ERβ
T1 construct: Assay reagents used were bacculovirus expressed, full length human ERβ; purchased PanVera; host or cells: baculovirus expression system
Description: as §1, §2

ERα = molecular target: T2, ERα (Homo sapiens, UniProt P03372); test: Estrogen receptor binding assay (fluorescence polarization competition), ERα
T2 construct: bacculovirus expressed, full length human 2.8 pmol/μL ERα was used as reagent; purchased PanVera; host or cells: baculovirus expression system

[1] = Estrogenic effects seen with Compound 1 prepared by Process A; settings: Compound 1 preparation made by Process A, Route 1 (contains 17α-ethynyl-androst-5-ene-3β,17β-diol impurity)
[2] = tested on: nuclear sex steroid receptors; test: Binding activity at nuclear sex steroid receptors; settings: essentially free defined in b31 as Ki>10 μM
Text: The term “binding activity” refers to the ability of a specified compound, a preparation comprising Compound 1 or impurity (or impurities) in a preparation of Compound 1 to bind to or associate with a receptor, typically a sex steroid receptor such as an androgen receptor or an estrogen receptor to effect or modulate the receptor's biological activity. Binding is usually measured in assays as the capacity of a compound, usually an impurity in a preparation comprising Compound 1, to displace a physiologically relevant ligand of a receptor (i.e., reference ligand) that is bound to that receptor in a competition assay. The reference ligand is typically a natural ligand of the receptor or an agonist of the receptor that has been labeled with a radioactive or spectroscopic probe whose presence may be queried by scintillation counting or by a spectroscopic method such as fluorescence emission or fluorescence polarization.
The radioactive probe is typically ^3H and/or ^14C, where radioactive atom(s) have replaced one or more of atoms of the ligand at positions where loss of the radiolabel would not occur to an extent under conditions of the assay that would complicate or confound interpretation of the assay results. […]

[3] = Compound 1 essentially free of the 3β,17β-diol impurity, tested to 10 μM

T2 sequence (P03372 whole entry): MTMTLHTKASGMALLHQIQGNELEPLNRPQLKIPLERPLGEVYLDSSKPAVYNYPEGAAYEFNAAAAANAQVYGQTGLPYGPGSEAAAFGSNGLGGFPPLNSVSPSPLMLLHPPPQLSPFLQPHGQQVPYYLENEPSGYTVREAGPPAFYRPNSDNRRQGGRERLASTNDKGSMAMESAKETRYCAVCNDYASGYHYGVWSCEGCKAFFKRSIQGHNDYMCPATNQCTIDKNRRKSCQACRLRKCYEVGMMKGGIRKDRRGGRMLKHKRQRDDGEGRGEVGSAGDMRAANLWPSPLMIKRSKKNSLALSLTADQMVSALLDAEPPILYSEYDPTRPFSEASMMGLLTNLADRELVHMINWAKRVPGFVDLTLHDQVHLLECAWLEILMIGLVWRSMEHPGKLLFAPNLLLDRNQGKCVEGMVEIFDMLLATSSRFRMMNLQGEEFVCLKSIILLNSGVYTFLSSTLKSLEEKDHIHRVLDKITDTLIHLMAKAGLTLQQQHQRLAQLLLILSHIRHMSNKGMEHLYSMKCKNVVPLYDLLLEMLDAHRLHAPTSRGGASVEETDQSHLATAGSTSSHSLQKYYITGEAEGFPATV
T1 sequence (Q92731 whole entry): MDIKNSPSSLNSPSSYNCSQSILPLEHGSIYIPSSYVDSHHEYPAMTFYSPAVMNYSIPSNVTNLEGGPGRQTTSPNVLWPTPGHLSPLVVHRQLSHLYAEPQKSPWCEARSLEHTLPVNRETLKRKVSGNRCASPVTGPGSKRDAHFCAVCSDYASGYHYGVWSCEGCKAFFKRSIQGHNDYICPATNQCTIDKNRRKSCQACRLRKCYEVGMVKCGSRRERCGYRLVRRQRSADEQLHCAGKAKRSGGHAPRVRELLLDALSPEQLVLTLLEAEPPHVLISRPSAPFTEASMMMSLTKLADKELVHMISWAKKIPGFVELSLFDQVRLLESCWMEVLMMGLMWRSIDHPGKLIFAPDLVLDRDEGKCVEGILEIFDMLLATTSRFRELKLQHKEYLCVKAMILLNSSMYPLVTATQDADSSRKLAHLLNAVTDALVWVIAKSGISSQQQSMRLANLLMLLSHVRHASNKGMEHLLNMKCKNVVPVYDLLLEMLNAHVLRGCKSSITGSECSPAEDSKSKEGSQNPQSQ

| Structure (SMILES) | binding capacity to estrogen receptors (estrogen receptors) | binding activity at the estrogen receptor ERβ (ERβ; receptor binding studies) | binding activity at the estrogen receptor ERα (ERα; receptor binding studies) | estrogenic effects [1] | activity at the estrogen receptor ERβ (ERβ; [3]) | activity at the estrogen receptor ERα (ERα; [3]) | binding activity at nuclear sex steroid receptors [2] |
| --- | --- | --- | --- | --- | --- | --- | --- |
| C#CC1(O)CCC2C3CC=C4CC(OC(C)=O)CCC4(C)C3CCC21C (stereo not drawn) [17α-ethynyl-3β-acetoxy-androst-5-ene-17β-diol] | 0.05** | – | – | – | – | – | – |
| C#CC1(O)CCC2C3CC=C4CC(O)CCC4(C)C3CCC21C (stereo not drawn) [17α-ethynyl-androst-5-ene-3β,17β-diol] | 0.61** | significant binding activity | significant binding activity | – | – | – | – |
| C#C[C@@]1(O)CC[C@H]2[C@@H]3[C@@H](O)C=C4C[C@H](O)CC[C@]4(C)[C@H]3CC[C@@]21C [Compound 1, 17-Ethynyl-10R,13S-dimethyl 2,3,4,7,8R,9S,10,11,12,13,14S,15,16,17-hexadecahydro-1H-cyclopenta[a]phenanthrene-3R,7R,17S-triol] | – | – | – | estrogenic effects | no activity | no activity | essentially free of binding activity |
